Measurements from ChEMBL document CHEMBL1201862, “PubChem BioAssay data set” (2004).
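Interpolation was linear, between the two tested concentrations surrounding the appropriate level; five concentrations were tested over 48 hours in 96-well plates. GI50: concentration for 50% inhibition of growth.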 Active and inactive are the calls of the source. No stated cut-off is given here; in the data, active = GI50 up to about 1.1 µM and inactive = higher. Non-standard residues stand in square brackets, D forms with d. Residues, ends and D or L forms follow the SMILES beside them. *: point of attachment. Ac5c = NC1(C(=O)O)CCCC1; Boc = CC(C)(C)OC(=O)*; tBu = CC(C)(C)*

Key:
Test in all cases: inhibition of tumour cell growth, NCI panel, 48 h
HOP-62 = tested on: HOP-62
EKVX = tested on: EKVX
SNB-19 = tested on: SNB-19
SW-620 = tested on: SW-620
SN12C = tested on: SN12C
RXF 393 = tested on: RXF 393
NCI-H226 = tested on: NCI-H226
NCI-H23 = tested on: NCI-H23
A549 = tested on: A549
K562 = tested on: K562
OVCAR-4 = tested on: OVCAR-4
PC-3 = tested on: PC-3
MOLT-4 = tested on: MOLT-4
HCT-15 = tested on: HCT-15
RPMI-8226 = tested on: RPMI-8226
NCI-H522 = tested on: NCI-H522
Malme-3M = tested on: Malme-3M
MDA-MB-231 = tested on: MDA-MB-231
HCC 2998 = tested on: HCC 2998
OVCAR-3 = tested on: OVCAR-3

Compound | GI50 (HOP-62) | GI50 (EKVX) | GI50 (SNB-19) | GI50 (SW-620) | GI50 (SN12C) | GI50 (RXF 393) | GI50 (NCI-H226) | GI50 (NCI-H23) | GI50 (A549) | GI50 (K562) | GI50 (OVCAR-4) | GI50 (PC-3) | GI50 (MOLT-4) | GI50 (HCT-15) [µM] | GI50 (RPMI-8226) | GI50 (NCI-H522) | GI50 (Malme-3M) | GI50 (MDA-MB-231) | GI50 (HCC 2998) | GI50 (OVCAR-3)
Cn1c2ccccc2c(=NNc2cccc(C(=O)O)c2)c2ccccc21 | 12.7 µM (inactive) | 5.57 µM (inactive) | 6.84 µM (inactive) | 5.64 µM (inactive) | 6.55 µM (inactive) | 6.38 µM (inactive) | 12.1 µM (inactive) | 9.95 µM (inactive) | 5.75 µM (inactive) | 3.37 µM (inactive) | 12.4 µM (inactive) | 4.92 µM (inactive) | 3.97 µM (inactive) | 15.3 | 5.96 µM (inactive) | 5.05 µM (inactive) | 20.1 µM (inactive) | 11 µM (inactive) | 3.3 µM (inactive) | 3.57 µM (inactive)
Cc1ccc2nc(-c3ccccc3)cc(=O)n2c1 | > 100 µM (inactive) | 81.8 µM (inactive) | > 100 µM (inactive) | > 100 µM (inactive) | > 100 µM (inactive) | > 100 µM (inactive) | 64.6 µM (inactive) | > 100 µM (inactive) | > 100 µM (inactive) | > 100 µM (inactive) | > 100 µM (inactive) | > 100 µM (inactive) | > 100 µM (inactive) | > 100 | > 100 µM (inactive) | > 100 µM (inactive) | > 100 µM (inactive) | > 100 µM (inactive) | > 100 µM (inactive) | > 100 µM (inactive)
CC(=O)O[C@H](C[C@@H](C)[C@H]1C(=O)[C@H](O)[C@@]2(C)C3CC[C@H]4C(C)(C)[C@@H](OC5OCC(O)C(O)C5O)CC[C@@]45C[C@@]35CC[C@]12C)[C@@H]1OC1(C)C (some centres not stated) | 12.1 µM (inactive) | 18 µM (inactive) | 20.1 µM (inactive) | 32.4 µM (inactive) | 18.9 µM (inactive) | 16.8 µM (inactive) | 17.5 µM (inactive) | 23.9 µM (inactive) | 27.9 µM (inactive) | 0.14 µM (active) | 22.4 µM (inactive) | 15.2 µM (inactive) | – | 24.6 | 12.4 µM (inactive) | 17.4 µM (inactive) | 17.2 µM (inactive) | 16.1 µM (inactive) | 16.3 µM (inactive) | 2.29 µM (inactive)
CCCC(=O)Nc1cn(COC)c(C(=O)N2C[C@H]3C[C@@]34C2=CC(=O)c2[nH]cc(C)c24)n1 | 7.98 µM (inactive) | 11.2 µM (inactive) | 18.1 µM (inactive) | 3.66 µM (inactive) | 11.5 µM (inactive) | 8.2 µM (inactive) | 9.86 µM (inactive) | 2.02 µM (inactive) | 12.2 µM (inactive) | 5.31 µM (inactive) | 9.12 µM (inactive) | 12.6 µM (inactive) | 0.553 µM (active) | 11.9 | 6.04 µM (inactive) | 1.65 µM (inactive) | 2.44 µM (inactive) | 13.1 µM (inactive) | 2.89 µM (inactive) | 10.4 µM (inactive)
CCOC(=O)c1cc2cc3c4c(c2oc1=O)CCCN4CCC3 | 26.2 µM (inactive) | 12 µM (inactive) | 42.6 µM (inactive) | 67.9 µM (inactive) | 30.8 µM (inactive) | 10.4 µM (inactive) | 14.7 µM (inactive) | 30.1 µM (inactive) | 21.5 µM (inactive) | 38.3 µM (inactive) | 34 µM (inactive) | 29 µM (inactive) | 25.8 µM (inactive) | 25.2 | 19.3 µM (inactive) | 19.4 µM (inactive) | 49.3 µM (inactive) | 22.3 µM (inactive) | 78.9 µM (inactive) | 29.9 µM (inactive)
COc1c2ccsc2c(OC)c2ccsc12 | 40.2 µM (inactive) | > 100 µM (inactive) | > 100 µM (inactive) | > 100 µM (inactive) | > 100 µM (inactive) | 35.2 µM (inactive) | > 100 µM (inactive) | > 100 µM (inactive) | > 100 µM (inactive) | > 100 µM (inactive) | > 100 µM (inactive) | > 100 µM (inactive) | > 100 µM (inactive) | > 100 | – | > 100 µM (inactive) | > 100 µM (inactive) | > 100 µM (inactive) | > 100 µM (inactive) | > 100 µM (inactive)
NC(=O)NC(=O)c1ccc(NC(=O)CBr)cc1 | 1.94 µM (inactive) | 2.38 µM (inactive) | 21.9 µM (inactive) | 0.344 µM (active) | 0.561 µM (active) | 1.77 µM (inactive) | 3.33 µM (inactive) | 2.06 µM (inactive) | 14.1 µM (inactive) | 0.705 µM (active) | 1.66 µM (inactive) | 1.96 µM (inactive) | 0.241 µM (active) | 1.8 | 1.1 µM (active) | 0.128 µM (active) | 1.54 µM (inactive) | 2.49 µM (inactive) | 12.8 µM (inactive) | 0.843 µM (active)
Nc1nc(NCC2(CO)CCC2)cc(=O)[nH]1 | > 100 µM (inactive) | > 100 µM (inactive) | > 100 µM (inactive) | > 100 µM (inactive) | > 100 µM (inactive) | > 100 µM (inactive) | > 100 µM (inactive) | > 100 µM (inactive) | > 100 µM (inactive) | > 100 µM (inactive) | > 100 µM (inactive) | > 100 µM (inactive) | > 100 µM (inactive) | > 100 | > 100 µM (inactive) | > 100 µM (inactive) | > 100 µM (inactive) | > 100 µM (inactive) | > 100 µM (inactive) | > 100 µM (inactive)
CC(OC(C)(C)C)C1NC(=O)C(CCCCNC(=O)OC(C)(C)C)NC(=O)C(Cc2c[nH]c3ccccc23)NC(=O)C(Cc2ccccc2)NC(=O)C2(CCCC2)NC(=O)C(Cc2ccccc2)NC1=O (configuration not stated) (cyclo([Ac5c]FWK(Boc)T(tBu)F); configuration not given here) | 49.4 µM (inactive) | 41.5 µM (inactive) | 34.2 µM (inactive) | 22.9 µM (inactive) | 29.9 µM (inactive) | 37.5 µM (inactive) | 21.5 µM (inactive) | 36.9 µM (inactive) | – | 27.8 µM (inactive) | 49.9 µM (inactive) | 26.9 µM (inactive) | 7.71 µM (inactive) | > 100 | 10.7 µM (inactive) | 21.4 µM (inactive) | 27.3 µM (inactive) | 17.5 µM (inactive) | 19 µM (inactive) | 26 µM (inactive)
O=C1Nc2ccccc2/C1=C1/Nc2ccccc2/C1=N/OCCOCCO | 3.9 µM (inactive) | 2.67 µM (inactive) | 6.52 µM (inactive) | 1.82 µM (inactive) | 2.69 µM (inactive) | 1.03 µM (active) | 0.547 µM (active) | 3.07 µM (inactive) | 1.69 µM (inactive) | 5 µM (inactive) | 7.19 µM (inactive) | 2.36 µM (inactive) | 2.96 µM (inactive) | 0.664 | 3.47 µM (inactive) | 2.47 µM (inactive) | 1.43 µM (inactive) | 5.93 µM (inactive) | 2.76 µM (inactive) | 2.06 µM (inactive)
Nc1ccccc1.O=P(O)(O)c1ccccc1 | > 100 µM (inactive) | > 100 µM (inactive) | > 100 µM (inactive) | > 100 µM (inactive) | > 100 µM (inactive) | > 100 µM (inactive) | > 100 µM (inactive) | > 100 µM (inactive) | > 100 µM (inactive) | > 100 µM (inactive) | > 100 µM (inactive) | > 100 µM (inactive) | – | > 100 | > 100 µM (inactive) | > 100 µM (inactive) | > 100 µM (inactive) | > 100 µM (inactive) | > 100 µM (inactive) | > 100 µM (inactive)
COc1cc(CNC(=O)CCCCCCCCCCSC#N)ccc1O | – | 21.4 µM (inactive) | 19.7 µM (inactive) | 16.2 µM (inactive) | – | 10.2 µM (inactive) | 18.1 µM (inactive) | 20.6 µM (inactive) | 19.1 µM (inactive) | 6.9 µM (inactive) | 25 µM (inactive) | 6.82 µM (inactive) | 3.94 µM (inactive) | 6.93 | 14.6 µM (inactive) | 12.3 µM (inactive) | 32.7 µM (inactive) | 25.7 µM (inactive) | > 100 µM (inactive) | 13.1 µM (inactive)
CC(C)[Si](OC1=C(C(=O)N(C)c2ccccc2Cl)CCCC1)(C(C)C)C(C)C | 18 µM (inactive) | 13.6 µM (inactive) | 12.8 µM (inactive) | 15.2 µM (inactive) | – | 16.1 µM (inactive) | 16 µM (inactive) | 16.3 µM (inactive) | 1.57 µM (inactive) | 6.15 µM (inactive) | 13.9 µM (inactive) | 11.4 µM (inactive) | 14.1 µM (inactive) | 16.1 | 10.3 µM (inactive) | 5.77 µM (inactive) | 13 µM (inactive) | 16.3 µM (inactive) | 13.6 µM (inactive) | 13.2 µM (inactive)
O=C1/C(=C/c2ccc(Br)s2)NC(=S)N1CN1CCCCC1 | 75 µM (inactive) | 9.35 µM (inactive) | 46.9 µM (inactive) | 33 µM (inactive) | 34.8 µM (inactive) | 21.1 µM (inactive) | 32 µM (inactive) | 32.4 µM (inactive) | – | 23.1 µM (inactive) | 36.8 µM (inactive) | 28.2 µM (inactive) | 23.4 µM (inactive) | 27.9 | 17.6 µM (inactive) | 23.3 µM (inactive) | 58.7 µM (inactive) | 62.4 µM (inactive) | 31 µM (inactive) | 22.4 µM (inactive)
